Source: article PMC8032764 (Scientific Reports, 2021)
Values joined by “and” are separate entries in the source; they are usually repeats but may differ in a detail not shown here. Equal entries are not always repeated. Where two headings read alike, the source gives them in different places.

Tests used:
human GABAA α5β3γ2 = human GABAA α5β3γ2 (Homo sapiens, UniProt P18507+P31644); experiment: biochemical; details: 1 nM [3H]-flumazenil
Protocol: (§1) HEK293-EBNA cells adapted to grow in suspension were transiently transfected with the plasmids containing the desired GABAA receptor subunit cDNAs at α, β, γ, 1:1:2 ratio using XtremeGENE Q2 (Cat. No. 03045595001, Roche Applied Science, RAS, Rotkreuz, Switzerland) as previously described. GABAA α1β2γ2, α2β3γ2, α3β3γ2, α4β3γ2, α5β3γ2 and α6β3γ2 receptor subtypes were expressed in this system. 48 h post transfection, the cells were harvested and washed three times with cold PBS and frozen at − 80 °C.
Non-specific binding was determined in the presence of 10 μM diazepam.

human α4β3γ2 = biological target: T1, human α4β3γ2 (Homo sapiens, UniProt P18507+P48169); experiment: [3H]-Ro 15-4513 competition binding; details: at > 3 µM; data not shown
T1 construct: expressed in transfected cells; host or cells: HEK293-EBNA, transient
Protocol: as §1
(§2) IC50 values were derived from the inhibition curve and Ki values were calculated as described below.

human α6β3γ2 = biological target: T2, human α6β3γ2 (Homo sapiens, UniProt P18507+Q16445); experiment: [3H]-Ro 15-4513 competition binding; details: at > 3 µM; data not shown
T2 construct: expressed in transfected cells; host or cells: HEK293-EBNA, transient
Protocol: as §1, §2

Benzodiazepine (central) = experiment: Cerep binding; details: 10 μM; [3H]flunitrazepam; rat cerebral cortex
Dopamine D5 = tested on: T3, Dopamine D5; experiment: Cerep binding; set-up: species or system human; details: 10 μM; [3H]SCH 23390; hum. recomb. (GH4)
T3 construct: host or cells: GH4

Serotonin 5-HT2A = tested on: T4, Serotonin 5-HT2A; experiment: Cerep binding; set-up: species or system human; details: 10 μM; [3H]ketanserin; hum. recomb. (HEK-293)
T4 construct: purchased Eurofins Cerep

Angiotensin AT2 = tested on: T5, Angiotensin AT2; experiment: Cerep binding; set-up: species or system human; details: 10 μM; [125I]CGP 42112A; hum. recomb. (CHO)
T5 construct: purchased Eurofins Cerep

Melanocortin MC4 = tested on: T6, Melanocortin MC4; experiment: Cerep binding; set-up: species or system human; details: 10 μM; [125I]NDP-α-MSH; hum. recomb. (CHO)
T6 construct: purchased Eurofins Cerep

[1] = tested on: Somatostatin (non-selective); experiment: Cerep binding; details: 10 μM; [125I]Tyr11-somatostatin-14; mouse, AtT-20 cells
[2] = tested on: T7, Vasoactive intestinal peptide PAC1 (PACAP); experiment: Cerep binding; set-up: species or system human; details: 10 μM; [125I]PACAP1-27; hum. recomb. (CHO)
T7 construct: host or cells: CHO

male Lister Hooded rats = experiment: Diazepam-induced spatial learning impairment in the Morris water maze; type: in vivo, rat
Protocol: The current study used a modified version of the standard acquisition protocol, in which pre-trained rats had to learn to locate a new platform position during six trials on the test day, as described previously. Subjects were semi-randomly divided into treatment groups based on their performance on the last training day. A computer tracking system (HVS Image Ltd, UK) was used to analyse each rat’s swim path on-line.
Latency, pathlength and swim speed (Supplementary Fig. S2) were analysed with a one-factor ANOVA. For the probe trial, to determine whether each treatment group had learned the spatial position of the platform, within-subjects ANOVA was used to compare percent time spent in the platform quadrant with the left, right and opposite quadrants. All significant cases were followed by a post hoc Newman–Keuls test. In addition, a comparison between vehicle treated and diazepam-treated rats on the percent time spent in the platform quadrant was analysed using an unpaired t-test.

cynomolgus macaques = experiment: Object retrieval task; type: in vivo, Macaca fascicularis; details: 2 h prior to testing
Protocol: (§3) Twelve cynomolgus macaques were presented with a clear acrylic box with one open side baited with a food treat, as described previously[14],[38]. The test is easy when the open side of the box is directed towards the subject and difficult when the open sides face other directions. […] Compound doses were administered in a pseudorandom order. Administration of dose and behavioral measurements were completed blind. Data were analysed using a one-way repeated measures ANOVA followed, in significant cases, by a post hoc Dunnett’s test. Plasma samples were collected from the same three subjects at each dose group at 3 h post administration.

[3] = Plasma levels, object retrieval task; type: in vivo, Macaca fascicularis; details: cynomolgus monkey, oral; for concentration at 180 min: read-out: total plasma concentration
Protocol: as §3, with “administration. […] The calibration range was from 1.0 to 5000 ng/mL. After protein precipitation with ethanol, the sample solution was injected onto a Gemini C18 trapping column (2 × 10 mm; Phenomenex, Torrance, CA, USA) and polar endogenous compounds and salts were rinsed off. […] A drug analogue was used as an internal standard.” for “administration.”

[4] = Pharmacokinetics, single intravenous dosing; type: in vivo; details: C57/Bl6, mouse, plasma, 2.0 mg/kg i.v., 2 male
[5] = Pharmacokinetics, single intravenous dosing; type: in vivo, NHP, Cynomolgus macaque; details: cynomolgus monkey, plasma, 1.0 mg/kg i.v.
[6] = 3 and 10 mg/kg p.o. + diazepam 6 mg/kg i.p.

Compound: Cc1onc(-c2ccc(F)cc2)c1COc1ccc(C(=O)N2CCS(=O)(=O)CC2)cn1 [basmisanil]
- Ki (human GABAA α5β3γ2): 5 nM and 5.1 nM
- binding (human α4β3γ2): no binding
- binding (human α6β3γ2): no binding
- % Inhibition (Benzodiazepine (central)): 76%
- % Inhibition (Dopamine D5): -11%
- % Inhibition (Serotonin 5-HT2A): -9%
- % Inhibition (Angiotensin AT2): -3%
- % Inhibition (Melanocortin MC4): 9%
- % Inhibition [1]: 18%
- % Inhibition [2]: -16%
- probe trial, percent time spent in the previous platform quadrant (male Lister Hooded rats; 10 mg/kg p.o. + diazepam 6 mg/kg i.p., 30 min before test): attenuated the diazepam-induced deficit
- latency and pathlength across six learning trials (male Lister Hooded rats; [6]): did not significantly reduce the diazepam-induced increase in latency and pathlength
- swim speed (male Lister Hooded rats; [6]): no effect on swim speed
- percentage of correct first reaches during difficult trials (cynomolgus macaques; 1 and 30 mg/kg p.o.): no marked improvement on performance
- percentage of correct first reaches during difficult trials (cynomolgus macaques; 3 and 10 mg/kg p.o.): significantly improved
- concentration at 180 min ([3]; 1 mg/kg p.o.): 257 ng/mL
- concentration at 180 min ([3]; 3 mg/kg p.o.): 1020 ng/mL
- concentration at 3 h ([3]; 3 mg/kg p.o., read-out: free plasma concentration): 156 nM
- concentration at 180 min ([3]; 10 mg/kg p.o.): 2260 ng/mL
- concentration at 180 min ([3]; 30 mg/kg p.o.): 2850 ng/mL
- half-life [4]: 0.5 h
- clearance ([4]; read-out: Total CL): 37 mL/min/kg
- Vd ([4]; read-out: Vss): 1.3 L/kg
- half-life ([5]; n=3): 4.5 ± 1.8 h
- clearance ([5]; n=3, read-out: Total CL): 3 ± 0.7 mL/min/kg
- Vd ([5]; n=3, read-out: Vss): 0.9 ± 0.6 L/kg
